Experimental data: patent publication US8889712B2, “IAP antagonists” (Bristol-Myers Squibb Company, priority 2012, dated 2014)

Columns and labels:
[1] = target: T1, XIAP BIR3 (Homo sapiens, UniProt P98170); experiment: XIAP-BIR3/SMAC Homogeneous Time Resolved Fluorescence (HTRF) Assay; format: binding; conditions: 1 nM N-His-BIR3 (241-356, XIAP), 5 nM fluorescein labeled SMAC peptide; HTRF signal; read-out: XIAP BIR3 IC50
T1 construct: His-BIR3 (241-356, XIAP)
In short: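 Competition HTRF between XIAP-BIR3 and SMAC; reaction 60 min at room temperature, then anti-6×His-terbium Fab detection for a further 30 min.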

[2] = target: T2, XIAP BIR2-3 (Homo sapiens, UniProt P98170, C202A/C213G); experiment: XIAP-BIR2-3 dimeric SMAC Peptide Homogeneous Time Resolved Fluorescence (HTRF) Assay; format: binding; conditions: 0.5 nM N-His-BIR2-3 (125-356, C202A/C213G, XIAP), 20 nM fluorescein labeled dimeric SMAC peptide; HTRF signal; read-out: XIAP BIR2-3 IC50
T2 construct: His-BIR2-3 (125-356, C202A/C213G, XIAP)
Description: B. […] Assays were performed in black, flat-bottom, 384-well plates. […] Compounds were dissolved at 3 mM in dimethylsulfoxide (DMSO) and evaluated at eleven serially diluted concentrations. IC50 and Ki values were derived by non-linear regression analysis.

T2 sequence (P98170 125-356 C202A/C213G): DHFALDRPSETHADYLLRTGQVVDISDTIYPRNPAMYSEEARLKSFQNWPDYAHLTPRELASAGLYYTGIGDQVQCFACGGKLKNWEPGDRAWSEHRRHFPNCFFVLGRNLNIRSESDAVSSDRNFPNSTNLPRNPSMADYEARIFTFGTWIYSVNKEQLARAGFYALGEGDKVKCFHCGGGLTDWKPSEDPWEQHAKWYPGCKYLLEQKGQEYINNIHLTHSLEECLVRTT
T1 sequence (P98170 241-356): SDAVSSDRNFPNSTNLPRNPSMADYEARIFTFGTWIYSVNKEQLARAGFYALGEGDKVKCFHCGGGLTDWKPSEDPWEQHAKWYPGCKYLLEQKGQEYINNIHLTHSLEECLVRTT

Molecule	IC50 [1] [nM]	IC50 [2] [nM]
CN[C@@H](C)C(=O)N[C@H](C(=O)N1Cc2cc(C(=O)N[C@H]3C[C@@H](C(=O)N[C@@H]4CCCc5ccccc54)N(C(=O)[C@@H](NC(=O)[C@H](C)NC)C(C)(C)C)C3)ccc2C[C@H]1C(=O)N[C@@H]1CCCc2ccccc21)C(c1ccccc1)c1ccccc1 [Example 89, (S)-N^7-((3S,5S)-1-((S)-3,3-dimethyl-2-((S)-2-(methylamino)propanamido)butanoyl)-5-(((R)-1,2,3,4-tetrahydronaphthalen-1-yl)carbamoyl)pyrrolidin-3-yl)-2-((S)-2-((S)-2-(methylamino)propanamido)-3,3-diphenylpropanoyl)-N^3-((R)-1,2,3,4-tetrahydronaphthalen-1-yl)-1,2,3,4-tetrahydroisoquinoline-3,7-dicarboxamide]	37.8	360
(S)-2-((S)-3-Cyclopentyl-2-((S)-2-(methylamino) propanamido)propanoyl)-N^7-((3S,5S)-1-((S)-3,3-dimethyl-2- ((S)-2-(methylamino)propanamido)butanoyl)-5-(((R)-1,2,3,4- tetrahydronaphthalen-1-yl)carbamoyl)pyrrolidin-3-yl)-N^3- ((R)-1,2,3,4-tetrahydronaphthalen-1-yl)-1,2,3,4- tetrahydroisoquinoline-3,7-dicarboxamide [Example 6]	14	2
